# Assay results: ChEMBL document CHEMBL6074694, “4-Oxo-β-lactams as Covalent Inhibitors of the Mitochondrial Intramembrane Protease PARL” (ACS Med Chem Lett, 2024)
# Calls of active or inactive are those of the source. No cut-off for these calls is given here.
# Experiments:
# [1] = molecular target: T1, Presenilin-associated rhomboid-like protein, mitochondrial (Homo sapiens, UniProt Q9H300); test: Inhibition of PARL (unknown origin) using Ac-RRRAVFKLA-aminomethyl coumarin as substrate preincubated for 30 mins followed by substrate addition and measured after 20 mins by plate reader assay
# T1 sequence (Q9H300 whole entry): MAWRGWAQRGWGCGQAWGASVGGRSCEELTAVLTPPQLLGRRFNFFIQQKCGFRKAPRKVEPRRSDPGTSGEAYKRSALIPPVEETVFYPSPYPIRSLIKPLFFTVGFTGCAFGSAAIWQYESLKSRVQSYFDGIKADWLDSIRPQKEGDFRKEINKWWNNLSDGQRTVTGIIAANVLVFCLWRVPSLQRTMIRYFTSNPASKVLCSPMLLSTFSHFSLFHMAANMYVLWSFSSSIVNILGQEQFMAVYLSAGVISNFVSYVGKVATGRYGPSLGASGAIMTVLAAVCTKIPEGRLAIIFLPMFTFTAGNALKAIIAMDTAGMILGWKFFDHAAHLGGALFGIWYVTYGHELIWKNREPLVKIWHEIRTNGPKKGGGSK
# [2] = (§1) Inhibition of FLAG-tagged PARL (unknown origin) overexpressed in HEK293-T-REx cells assessed as reduction in substrate cleavage using PGAM5-Myc as substrate incubated for overnight by densitometry assay; type: cell-based, Homo sapiens
# [3] = Inhibition of recombinant human RHBDL2 using Ac-PVAKA-7-amino-4-methylcoumarin-3-(N-octyl)-acetamide as substrate preincubated for 30 mins followed by substrate addition and measured after 20 mins by plate reader assay
# HEK293-T-REx = test: as §1; type: cell-based; settings: Homo sapiens
Compound,IC50 [1],further results
CCC1(CC)C(=O)N(c2ccc(CN3CCN(c4cc(C)nc5ccc(Br)cc45)CC3)cc2)C1=O,480 nM,–
CCC1(CC)C(=O)N(Cc2ccc(C(=O)OCc3ccccc3)cc2)C1=O,160 nM,EC50 [2]: 220 nM
CCC1(CC)C(=O)N(c2ccc(CN3CCN(c4ccc(Br)cc4)CC3)cc2)C1=O,490 nM,IC50 [3]: 21000 nM
CCC1(CC)C(=O)N(c2cccc(CN3CCN(c4ccc(Br)cc4)CC3)c2)C1=O,890 nM,–
CCC1(CC)C(=O)N(c2ccc(CN3CCc4cc5c(cc4C3)OCO5)cc2)C1=O,560 nM,–
CCC1(CC)C(=O)N(c2ccc(CN3CCN(C(c4ccc(F)cc4)c4ccc(F)cc4)CC3)cc2)C1=O,2600 nM,–
CCC1(CC)C(=O)N(c2cccc(CN3CCN(Cc4ccc(OC)cc4)CC3)c2)C1=O,1930 nM,–
CCC1(CC)C(=O)N(c2ccc(CN3CCN(c4ccnc5ccc(Br)cc45)CC3)cc2)C1=O,260 nM,IC50 [3]: 35000 nM
CCC1(CC)C(=O)N(c2ccc(CN3CCN(c4ccc(OC)cc4)CC3)cc2)C1=O,380 nM,–
CCC1(Cc2ccccc2)C(=O)N(OS(=O)(=O)c2ccc(C)cc2)C1=O,–,inhibition (HEK293-T-REx): inactive
CCC1(CC)C(=O)N(c2ccc(CN(Cc3ccccc3)Cc3ccccc3)cc2)C1=O,150 nM,EC50 [2]: 300 nM
CCC1(CC)C(=O)N(c2ccc(CN3CCN(Cc4ccc(Br)cc4)CC3)cc2)C1=O,1430 nM,IC50 [3]: 1900 nM
CCC1(CC)C(=O)N(c2cccc(CN3CCN(Cc4ccc(Br)cc4)CC3)c2)C1=O,1000 nM,–
